{
  "source": "patent US20220273752A1",
  "about": "“MODULATION OF DENDRITIC CELL FUNCTION BY THE PHOSPHOLIPID MESSENGER LPA” (Cornell University, priority 2019, published 2022)",
  "key": {"[1]": {"system": "bone marrow-derived dendritic cells (BMDCs)", "test": "Bodipy 493/503 staining of intracellular lipids in BMDCs by FACS", "type": "cell-based, murine", "settings": "100 μM LPA, 6 hours", "text": "Bodipy 493/503 staining was used to detect intracellular lipids by FACS. ***P<0.0005. FIG. 2B graphically illustrates quantities of Bodipy-stained intracellular lipids in LPA-treated cells compared to untreated cells."}, "[2]": {"system": "bone marrow-derived DCs", "test": "qPCR and Multiplex cytokine assays in BMDCs treated with LPA and Tunicamycin", "type": "cell-based, mouse", "protocol": "FIG. 4A-4L graphically illustrate that induction of a set of highly tumorigenic and immunomodulatory genes is mainly PERK-dependent in LPA-exposed dendritic cells undergoing endoplasmic reticulum (ER) stress. Bone marrow-derived dendritic cells (BMDCs) from the indicated genotypes were left untreated or were incubated with LPA (100 μM), Tunicamycin (TM, 1 μg/ml) or with the combination of both for 6 hours. Gene expression was determined by qPCR. In all cases data, was normalized to endogenous Actb levels in each sample. These findings have further been confirmed using primary splenic dendritic cells and with an independent ER stressor, Thapsigargin (extensive data not shown). ***P<0.0005, ***P<0.0001. The serine/threonine-protein kinase/endoribonuclease inositol-requiring enzyme 1 α (IRE1α) in humans is encoded by the ERNI gene, and expression of the IRE1α protein is activated during endoplasmic reticulum (ER) stress. TM is a pharmacological ER stressor that causes protein glycosylation defects. FIG. 4A graphically illustrates expression of IL-1, in bone marrow-derived DCs from Ern1^f/f or Ern1^f/f Vav1-Cre (Ern1 knockout) mice with or without co-treatment by ER stressor Tunicamycin (TM) and/or physiological concentrations of LPA. […]"}, "[3]": {"system": "BMDCs, sDCs and pDCs", "test": "IFN-β ELISA in DCs stimulated with TLR agonists", "type": "cell-based, murine", "settings": "Poly (I:C), LPS or CpG ODN1585, LPA 10 uM and 100 uM", "protocol": "FIG. 12A-12D illustrate that LPA represses IFN-β production by diverse DC types. Splenic dendritic cells (sDCs), bone marrow dendritic cells (BMDCs) and plasmacytoid dendritic cells (pDCs) were stimulated with Poly (I:C) (a high molecular weight, synthetic analog of double-stranded RNA (dsRNA) that is a potent inducer of interferon), LPS (lipopolysaccharide) or CpG ODN1585 (a synthetic immunostimulatory oligonucleotide) in the presence or absence of LPA (10 uM and 100 uM). IFN-β protein expression levels were determined by ELISA. **P<0.001, ***P<0.0005, ****P<0.0001. FIG. 12A illustrates IFN-β protein expression in splenic DCs (sDCs) after treatment with LPA and/or Poly (I:C). FIG. 12B illustrates IFN-β protein expression in bone marrow dendritic cells (BMDCs) after treatment with LPA and/or Poly (I:C). FIG. 12C illustrates IFN-β protein expression in bone marrow dendritic cells (BMDCs) after treatment with LPS and/or LPA. FIG. 12D illustrates IFN-β protein expression in plasmacytoid DCs (pDCs) after treatment with ODN1585 and/or LPA.\nThese effects also occurred in diverse DC types such as BMDCs, splenic DCs (sDCs) and plasmacytoid DCs (pDCs) during stimulation through Toll-like Receptors (TLRs) or upon exposure to cancer cells treated with inhibitors of poly ADP-ribose polymerase (PARP) that induce DNA damage. […] The structure of Talazoparib is shown below."}, "[4]": {"system": "TBK1 and IRF3 proteins in BMDCs", "test": "Western blot of TBK1 and IRF3 phosphorylation in BMDCs", "type": "cell-based, murine", "settings": "LPS- or Poly(I:C)-treated BMDCs; compared with untreated", "protocol": "The activation status of signaling pathways implicated in the optimal induction of type-I IFNs was then evaluated."}},
  "data": [
    {"substance": "lysophosphatidic acid [LPA]", "values": [
      {"measurement": "intracellular lipid accumulation in dendritic cells", "setting": "[1]", "value": "induces intracellular lipid accumulation"},
      {"measurement": "production of IL-1b, IL-6, VEGF-a, LIF, M-CSF, GRO-a (IL-8) and MIP1-a", "setting": "[2]; BMDCs co-treated with Tunicamycin (TM) and LPA (100 µM), Multiplex cytokine assays", "value": "significant PERK-dependent overproduction"},
      {"measurement": "expression of genes encoding IL-6, IL-1b, Arginase, Cox-2 and Vegf-A", "setting": "[2]; ER-stressed DCs simultaneously exposed to LPA, qPCR", "value": "potent upregulation"},
      {"measurement": "IFN-β protein levels upon TLR agonist stimulation", "setting": "[3]", "value": "decreased levels"},
      {"measurement": "phosphorylation of TBK1 and IRF3 proteins", "setting": "[4]", "value": "inhibited phosphorylation"}
    ]}
  ]
}
